Results on 4 compounds are retold here after patent publication US9320735B2, “Myeloid derived suppressor cell inhibiting agents” (Colorado State University Research Foundation, priority 2010, dated 2016).

Read-outs that look alike come from different tables or passages of the source.

The target of test [1] is T1, CCR2 (Homo sapiens, UniProt P41597). To be noted: read-out: CCR2 IC(50) bind; cited from earlier work.
Test [2] deals with T1, CCR2. To be noted: bind or taxis not given; read-out: CCR2 antagonist potency; cited from earlier work.
For test [3], the target named is T2, human recombinant CCR1 (Homo sapiens, UniProt P32246).
T2 sequence (P32246 1-355): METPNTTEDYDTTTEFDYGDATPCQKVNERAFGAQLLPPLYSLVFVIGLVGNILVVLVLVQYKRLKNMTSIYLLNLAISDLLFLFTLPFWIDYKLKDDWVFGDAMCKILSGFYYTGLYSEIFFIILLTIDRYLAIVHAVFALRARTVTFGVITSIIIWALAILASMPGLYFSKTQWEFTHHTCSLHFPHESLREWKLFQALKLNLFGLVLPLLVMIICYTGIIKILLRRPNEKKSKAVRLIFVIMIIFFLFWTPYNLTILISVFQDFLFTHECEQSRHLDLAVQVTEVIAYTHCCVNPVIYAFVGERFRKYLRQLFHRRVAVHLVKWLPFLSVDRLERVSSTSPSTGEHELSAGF
To be noted: read-out: IC50 for inhibition of human recombinant CCR1 receptor; cited from earlier work.

Test [4] addresses T3, CCR2 (Mus musculus, UniProt P51683).
T3 construct: endogenous in cells
In words: IFN-γ release by spleen cells of vaccinated mice treated with RS102895 (FIG. 34). Type of test: in vivo. As to the method: FIG. 34. Effects of co-administration of RS102895 (small molecule inhibitor, Tocris BioSciences), on spleen lymphocyte production of IFN-γ from vaccinated animals (T cell response). Mice were vaccinated s.c. with standard vaccine adjuvant (CLDC) and 5 ug ovalbumin and boosted 10 days later. A first group of mice (n=4 per group) received the vaccine only (cross-hatch). A second group of mice was vaccinated and also treated 1 day before, on the same day, and 1 day after with 5 mg/kg of the CCR2 antagonist RS102895, administered i.p. (horizontal line bar). A third group of mice was vaccinated and also treated 1 day before, on the same day, and 1 day after with 5 mg/kg of the CCR2 antagonist RS102895, administered s.q. at the site of vaccination (vertical line bar). The mice were sacrificed 2 weeks after the booster vaccination and spleen cells were incubated in vitro with ovalbumin (50 ug/ml) for 72 hours. Release of […] into the supernatants was determined by ELISA.
Mice were vaccinated s.c. with standard vaccine adjuvant (CLDC) and 5 ug ovalbumin and boosted 10 days later. One group of mice (n=4 per group) received the vaccine only. A second group of mice was vaccinated and also treated 1 day before, on the same day, and 1 day after with 5 mg/kg of the CCR2 antagonist RS102895, administered i.p. A third group of mice was vaccinated and also treated 1 day before, on the same day, and 1 day after with 5 mg/kg of the CCR2 antagonist RS102895, administered s.c. at the site of vaccination. The mice were sacrificed 2 weeks after the booster vaccination and spleen cells were incubated in vitro with ovalbumin (50 ug/ml) for 72 hours and release of IFN-γ into the supernatants was determined by ELISA. […] The data from this study is presented at FIG. 34.

Test [5] deals with MCP-1-stimulated calcium influx. The note with it: read-out: IC50, block of MCP-1-stimulated calcium influx; cited from earlier work.
Test [6] has as its target T4, α1D receptor (Homo sapiens, UniProt P25100).
T4 sequence (P25100 1-572): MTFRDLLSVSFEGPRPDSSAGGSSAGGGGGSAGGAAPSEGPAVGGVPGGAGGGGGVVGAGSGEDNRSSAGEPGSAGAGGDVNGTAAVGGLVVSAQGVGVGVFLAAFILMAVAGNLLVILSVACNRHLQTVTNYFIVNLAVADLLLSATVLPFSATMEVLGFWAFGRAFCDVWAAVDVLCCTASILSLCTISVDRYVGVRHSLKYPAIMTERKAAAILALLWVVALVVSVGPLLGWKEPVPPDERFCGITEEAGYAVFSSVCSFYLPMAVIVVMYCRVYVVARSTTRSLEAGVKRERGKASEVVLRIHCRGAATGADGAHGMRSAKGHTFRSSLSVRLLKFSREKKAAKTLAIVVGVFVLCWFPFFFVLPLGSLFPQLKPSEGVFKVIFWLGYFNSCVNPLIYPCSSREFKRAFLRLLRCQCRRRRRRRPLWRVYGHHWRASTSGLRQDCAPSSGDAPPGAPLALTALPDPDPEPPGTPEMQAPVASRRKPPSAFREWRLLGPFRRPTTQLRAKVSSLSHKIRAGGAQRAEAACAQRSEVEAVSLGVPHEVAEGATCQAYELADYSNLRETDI
The note with it: cited from earlier work.

The target in test [7] is T5, human recombinant CCR2b (Homo sapiens, UniProt P41597).
T5 sequence (P41597 1-360 isoform P41597-2): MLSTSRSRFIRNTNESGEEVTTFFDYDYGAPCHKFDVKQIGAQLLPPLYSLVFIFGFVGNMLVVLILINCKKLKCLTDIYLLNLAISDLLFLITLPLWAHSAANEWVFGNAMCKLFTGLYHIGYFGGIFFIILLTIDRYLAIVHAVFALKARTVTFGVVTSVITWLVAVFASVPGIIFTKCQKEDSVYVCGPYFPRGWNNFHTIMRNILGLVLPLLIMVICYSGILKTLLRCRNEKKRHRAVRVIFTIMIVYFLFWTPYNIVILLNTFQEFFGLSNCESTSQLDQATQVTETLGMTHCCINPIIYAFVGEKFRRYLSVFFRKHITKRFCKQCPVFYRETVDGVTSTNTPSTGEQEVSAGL
To be noted: read-out: IC50 for inhibition of human recombinant CCR2b receptor; cited from earlier work.

For test [8], the system named is MCP-1-stimulated chemotaxis. To be noted: read-out: IC50, block of MCP-1-stimulated chemotaxis; cited from earlier work.
The test system of test [9] is 5-HT1A receptor. The note with it: cited from earlier work.
Test [10] addresses T3, CCR2. Briefly: Antibody titers to ovalbumin after CLDC/ovalbumin vaccination with RS102895 (FIG. 33). Type of test: in vivo, mice. The note with it: 5 mg/kg 1 day before, same day, 1 day after. Here is the method: FIG. 33. Effects of co-administration of RS102895 (small molecule inhibitor, Tocris Bioscience), on antibody responses following vaccination via two different modes of administration i.p. (intraperitoneally) or SQ (subcutaneous). Mice were vaccinated SQ with standard vaccine adjuvant (CLDC) and 5 ug ovalbumin, and boosted 10 days later. The first group of mice (n=4 per group) received the vaccine only (cross-hatch bar). A second group of mice was vaccinated and also treated 1 day before, on the same day, and 1 day after with 5 mg/kg of the CCR2 antagonist RS102895 (horizontal line bar), administered i.p. A third group of mice was vaccinated and also treated 1 day before, on the same day, and 1 day after with 5 mg/kg of the CCR2 antagonist RS102895, administered s.c. at the site of vaccination (vertical line bar). Antibody titers to ovalbumin were determined 2 weeks after the boost and plotted as endpoint dilution titers for all animals in all groups. […]
Mice were vaccinated subcutaneous (s.c.) with standard vaccine adjuvant (CLDC) (Cationic liposome-DNA complexes) and 5 ug ovalbumin and boosted 10 days later. […] Antibody titers to ova were determined 2 weeks after the boost and plotted as endpoint dilution titers. […]

For test [11], the target named is T6, α1A receptor (Homo sapiens, UniProt P35348).
T6 sequence (P35348 1-466): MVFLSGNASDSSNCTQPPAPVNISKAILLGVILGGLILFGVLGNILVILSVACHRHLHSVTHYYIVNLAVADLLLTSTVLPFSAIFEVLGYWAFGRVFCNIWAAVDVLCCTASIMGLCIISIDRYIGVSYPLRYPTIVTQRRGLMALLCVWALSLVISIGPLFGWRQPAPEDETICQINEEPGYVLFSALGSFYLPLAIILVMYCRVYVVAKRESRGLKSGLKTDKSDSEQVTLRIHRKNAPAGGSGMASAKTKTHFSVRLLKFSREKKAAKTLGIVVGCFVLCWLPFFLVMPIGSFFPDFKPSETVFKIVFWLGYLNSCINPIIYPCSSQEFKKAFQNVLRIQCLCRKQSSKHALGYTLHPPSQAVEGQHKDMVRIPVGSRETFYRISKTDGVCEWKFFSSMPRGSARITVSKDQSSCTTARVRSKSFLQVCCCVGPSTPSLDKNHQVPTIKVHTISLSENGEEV
To be noted: cited from earlier work.

T1 sequence (P41597 whole entry, species assumed): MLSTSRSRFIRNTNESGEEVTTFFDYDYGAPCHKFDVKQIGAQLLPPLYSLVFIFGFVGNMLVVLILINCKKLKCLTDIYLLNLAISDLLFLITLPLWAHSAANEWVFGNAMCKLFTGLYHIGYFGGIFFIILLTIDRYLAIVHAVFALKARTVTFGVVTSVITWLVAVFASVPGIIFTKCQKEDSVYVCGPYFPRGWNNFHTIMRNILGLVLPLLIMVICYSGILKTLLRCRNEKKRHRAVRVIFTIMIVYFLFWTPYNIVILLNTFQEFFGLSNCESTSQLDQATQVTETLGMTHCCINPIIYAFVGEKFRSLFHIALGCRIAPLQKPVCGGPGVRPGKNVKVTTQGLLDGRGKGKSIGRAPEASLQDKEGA
T3 sequence (P51683 whole entry): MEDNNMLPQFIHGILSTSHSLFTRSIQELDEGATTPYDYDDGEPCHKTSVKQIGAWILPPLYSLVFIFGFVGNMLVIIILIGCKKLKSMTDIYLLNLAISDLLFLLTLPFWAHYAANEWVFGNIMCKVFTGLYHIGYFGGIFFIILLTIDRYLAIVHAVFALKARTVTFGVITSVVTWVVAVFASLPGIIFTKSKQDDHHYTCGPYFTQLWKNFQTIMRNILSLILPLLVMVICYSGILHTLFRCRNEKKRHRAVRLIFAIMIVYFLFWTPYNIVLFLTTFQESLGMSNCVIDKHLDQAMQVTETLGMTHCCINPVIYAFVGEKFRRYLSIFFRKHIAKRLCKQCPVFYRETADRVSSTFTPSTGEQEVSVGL

Take `O=C(/C=C/c1ccc(Cl)c(Cl)c1)NC1CCC(CN2C3CCC2CC(c2c[nH]c4ccc(O)cc24)C3)CC1` (stereo not drawn) [SB-380732]: the IC50 in test [1] was 0.05 µM.

Regarding `O=C(CNC(=O)c1ccccc1)NC1CCN(Cc2ccccc2)C1` (stereo not drawn) [3-Aminopyrrolidines], the IC50 in test [2] is 0.003 µM.

For the compound `CN(CCN1CCCCC1)c1ccc(-c2nc3cc(Sc4ccc(Cl)c(Cl)c4)ccc3[nH]2)cc1` [Benzimidazoles], the IC50 in [1] was 0.2 to 0.3 µM.

As to `Cl.O=C1Nc2ccccc2C2(CCN(CCc3ccc(C(F)(F)F)cc3)CC2)O1` [RS102895], the IC50 in test [3] was 17.8 µM; in [5], 0.032 µM; in test [7], 0.36 µM; in [8] it was 1.7 µM. Further, the “IFN-γ production by spleen cells” value in [4] (5 mg/kg SQ at site of vaccination, ovalbumin 50 ug/ml 72 hours, without CCR2 antagonist about 450) is recorded as “about 1,400 pg/ml”. The “IFN-γ production by spleen lymphocytes” value in [4] (5 mg/kg i.p., ovalbumin 50 ug/ml 72 hours, without CCR2 antagonist about 450) is “about 2,300 pg/ml”. Besides, the “IFN-γ production vs vaccinated without RS102895” value in [4] (5 mg/kg, either route) is “significantly higher amounts of IFN-γ”. The “inhibition of α1D receptor” value in test [6] is “inhibits”. The “inhibition of 5-HT1A receptor” value in [9] is “inhibits”. In test [10] (either route), the “antibody titers to ova relative to vaccine alone” value is recorded as at least 2 ×. Besides, the “antibody titers to ovalbumin vs vaccine alone” value in test [10] (i.p. or s.c., 2 weeks after boost) was “significantly higher antibody titers”. Moreover, the “inhibition of α1A receptor” value in test [11] is “inhibits”.
